This note sets out measurements from patent US20200253211A1, “PHOTODYNAMIC INHIBITION OF MICROBIAL PATHOGENS IN PLANTS” (SUNCOR ENERGY INC, priority 2017, published 2020).

Holding throughout (format): cell-based
For assay [1], the system named is Alternaria solani mycelia. As to the kind of experiment: Photodynamic inhibition of Alternaria solani mycelia, percentage of dead samples after 7 days on agar. As for the experimental part: In the experiments, Alternaria solani mycelia were grown in liquid medium for 24 hours. Small spheres of the mycelia (average diameter 2 mm) were incubated for 100 minutes with 100 μM of Mg-Chlorophyllin with 0 to 5 mM of Disodium-EDTA. Samples were illuminated with 395 nm (fluence 106.6 J cm^−2) for 120 mins and the radial growth of mycelial patches after 7 days on agar medium was measured. A sample was considered dead, if there was no growth observable after 7 days on agar plates.
In the experiments, Alternaria solani mycelia were grown in liquid medium for 24 hours. Small spheres of the mycelia (average diameter 2 mm) were incubated for 100 minutes with Chlorin E6 with or without 5 mM of disodium-EDTA. Samples were illuminated with 395 nm (fluence 106.6 J cm^−2) for 120 mins and the radial growth of mycelial patches after 7 days on agar medium was measured. A sample was considered dead, if there was no growth observable after 7 days on agar plates.
The protocol for the PDI of A. solani was as follows (for Experiment 2 and 5): • Grow A. solani on tomato-agar for some days. • Transfer parts of the growing mycelium form the edge of the A. solani (no conidia) to liquid tomato medium. • Incubate overnight at 26° C. under constant agitation. • Transfer the grown mycelia (spheres of mycelia, approximately 2 mm in diameter) to 24 well plates. • Add 500 microlitres of the PS to the well (PBS for the Co and light only controls). • Incubate under agitation for 100 minutes. • Illuminate under agitation for 120 minutes. • Transfer the treated mycelia to tomato-agar plates and incubate for one week at room temperature. • Evaluate by counting of dead samples.

In the next assay the test system is Xanthomonas axonopodis. As to the kind of experiment: Xanthomonas axonopodis count after photodynamic treatment in liquid medium. The note with it: Mg-Chlorophyllin alone; same protocol as Example 1. How it is done: Xanthomonas axonopodis are bacterial pathogens that cause citrus canker. Citrus canker is a highly contagious plant disease than can destroy an entire crop field. […] Positive results were obtained at several chlorophyllin concentrations and exposure times.
Xanthomonas were grown in liquid medium. Samples were incubated for 30 mins or 5 mins with Mg-Chlorophyllin and with Disodium-EDTA for 30 mins, and then illuminated with 395 nm (fluence 26.6 J cm−2) for 30 mins. CFU of the bacteria was counted on the plates.

The next assay concerns E. Coli K-12. As to the kind of experiment: E. Coli assay under LED lamps, colony count. As to conditions: light. How it is done: Regarding the E. Coli assay tests in the above examples, the following procedure was used: • 1. E. Coli K-12 inoculated in 5 mL TSB and placed in a shaking incubator overnight. • 2. Dilute culture in 500 mL PBS (˜10̂8 CFU/mL) and placed in shaking incubator for 30 minutes at […]. • 3.15 mL samples created using 12 mL culture and a mixture of PBS buffer and sample compounds. • 4. Placed under LED lamps for 2 hours (40 W/m^2). • 5. Samples diluted to 10^−4 and culture controls diluted to 10^−5 for plating through series dilutions. • 6. 0.1 mL plated of each sample in triplicates on TSA base (10^−3 and 10^−4 for samples. 10^−4 and 10^−5 for controls). • 7. Incubated overnight at 37° C. • 8. Colonies counted next morning and recorded.

Another assay has as its system Sclerotinia homoeocarpa. As to the kind of experiment: Radial growth of dollar spot fungus on amended Potato Dextrose Agar, dark vs light. The note with it: rate 31 μM.

Regarding `C=Cc1c(C)c2cc3nc(c(CC(=O)[O-])c4[n-]c(cc5nc(cc1[n-]2)C(C)=C5CC)c(C)c4C(=O)[O-])C(CCC(=O)[O-])C3C.[Mg+2].[Na+].[Na+].[Na+]` (stereo not drawn) [Mg-Chlorophyllin, Mg-chlorophyllin], the dead % in assay [1] (Table 2, Mg-Chlorophyllin 100 μM without EDTA, in light) came to 11.5%. In addition, in the assay with Xanthomonas axonopodis, the “control of Xanthomonas axonopodis” value is on record as “little effect”. Further, the “% Inactivation” value is 95.0% with E. Coli K-12 (Table 10, 1 μM MgChln); 97.6% in the assay with E. Coli K-12 (Table 10, 10 μM MgChln); 86.1% in the assay with E. Coli K-12 (Table 11, 1 μM MgChln); 91.3% in the assay on E. Coli K-12 (Table 12, 1 μM MgChln). For the same compound, the CFU/mL is 2.73E+05 CFU/mL with E. Coli K-12 (Table 10, 1 μM MgChln); 1.30E+05 CFU/mL with E. Coli K-12 (Table 10, 10 μM MgChln); 9.07E+05 CFU/mL with E. Coli K-12 (Table 11, 1 μM MgChln); 6.13E+05 CFU/mL in the assay with E. Coli K-12 (Table 12, 1 μM MgChln). The LogCFU/mL in the assay with E. Coli K-12 (Table 10, 1 μM MgChln) was 5.44 LogCFU/mL; with E. Coli K-12 (Table 10, 10 μM MgChln), 5.11 LogCFU/mL; in the assay on E. Coli K-12 (Table 11, 1 μM MgChln), 5.96 LogCFU/mL; with E. Coli K-12 (Table 12, 1 μM MgChln), 5.79 LogCFU/mL. Further, the % Inhibition (usually the share of the control response that was lost under treatment) was determined as 24.1% with Sclerotinia homoeocarpa (Table 7A, dark); 51.0% with Sclerotinia homoeocarpa (Table 7B, light); 32.5% with Sclerotinia homoeocarpa (Table 14A, dark); 59.2% in the assay with Sclerotinia homoeocarpa (Table 14B, light); 32.5% with Sclerotinia homoeocarpa (Table 15A, dark); 59.2% with Sclerotinia homoeocarpa (Table 15B, light). Further, the “Mean Radial Growth” value in the assay on Sclerotinia homoeocarpa (Table 7A, dark) was 11.2 mm; in the assay on Sclerotinia homoeocarpa (Table 7B, light), 6.6 mm; in the assay on Sclerotinia homoeocarpa (Table 14A, dark) it was 9.1 mm; in the assay on Sclerotinia homoeocarpa (Table 14B, light) it was 5.3 mm; in the assay with Sclerotinia homoeocarpa (Table 15A, dark), 9.1 mm; in the assay on Sclerotinia homoeocarpa (Table 15B, light) it was 5.3 mm.

As for `O=C(O)CN(CCN(CC(=O)O)CC(=O)O)CC(=O)O` [EDTA, disodium EDTA], the dead % worked out at 0% in assay [1] (Table 2, EDTA 5 mM alone, in light); 0% in assay [1] (Table 2, EDTA 5 mM alone, no light); 0% in assay [1] (Table 2, EDTA 50 mM alone, in light); 0% in assay [1] (Table 2, EDTA 50 mM alone, no light); 0% in assay [1] (Table 2, EDTA 100 mM alone, in light); 11.1% in assay [1] (Table 2, EDTA 100 mM alone, no light). Besides, the dead % in assay [1] (Table 2, EDTA 500 mM alone, in light) was found to be 0%; in assay [1] (Table 2, EDTA 500 mM alone, no light), 11.1%; in assay [1] (Table 5, light, 5 mM Na-EDTA alone), 0%; in assay [1] (Table 5, no light, 5 mM Na-EDTA alone), 0%.
